Each block holds one compound with its values, some of them ahead of it. The source made the active and inactive calls. Cut-off read from the data, not from the text of the source, for most assays here: actives have a measured EC50 and inactives only a lower limit.
Columns and labels:
[1] = cytotoxicity toward NIH3T3 fibroblasts, dose response, counter-screen, cell-based, ATP luminescence, mouse fibroblasts (AID 2010); assay type: functional;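 note: cells exposed to compound for about 90 hours before reading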
Fatty acid synthase [2] = target: T1, Fatty acid synthase (Homo sapiens, UniProt P49327); assay: FAS thioesterase domain inhibitors, dose response, biochemical, kinetic fluorescence intensity (AID 624326); assay type: functional;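 note: rate of fluorescence rise from hydrolysis of a fluorogenic O-methyl fluorescein ester substrate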
[3] = inhibitors of intracellular T. cruzi replication, confirmation, NIH3T3 host cells, beta-gal luminescence (AID 2044); assay type: functional, cell-based;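 note: intracellular parasites grown in NIH/3T3 mouse fibroblasts as host cells; luminescent beta-galactosidase reporter signal from transgenic T. cruzi replicating inside host cells; inhibitors lower the luminescence signal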
Fatty acid synthase [4] = target: T1, Fatty acid synthase; assay: FAS thioesterase domain inhibitors, dose response, biochemical, endpoint fluorescence intensity, uHTS hits (AID 624327); assay type: functional;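 note: fluorescence from hydrolysis of an O-methyl fluorescein acyl ester substrate by the enzyme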
SN12K1 = assay: cells; assay type: functional; conditions: Homo sapiens
[5] = target: T2, Rac GTPase-activating protein 1 (Homo sapiens, UniProt Q9H0H5); assay: MgcRacGAP GTPase-activating activity inhibitors, confirmation, biochemical, ADP Hunter fluorescence, primary and confirmatory (AID 624330); assay type: functional
T2 sequence (Q9H0H5 whole entry): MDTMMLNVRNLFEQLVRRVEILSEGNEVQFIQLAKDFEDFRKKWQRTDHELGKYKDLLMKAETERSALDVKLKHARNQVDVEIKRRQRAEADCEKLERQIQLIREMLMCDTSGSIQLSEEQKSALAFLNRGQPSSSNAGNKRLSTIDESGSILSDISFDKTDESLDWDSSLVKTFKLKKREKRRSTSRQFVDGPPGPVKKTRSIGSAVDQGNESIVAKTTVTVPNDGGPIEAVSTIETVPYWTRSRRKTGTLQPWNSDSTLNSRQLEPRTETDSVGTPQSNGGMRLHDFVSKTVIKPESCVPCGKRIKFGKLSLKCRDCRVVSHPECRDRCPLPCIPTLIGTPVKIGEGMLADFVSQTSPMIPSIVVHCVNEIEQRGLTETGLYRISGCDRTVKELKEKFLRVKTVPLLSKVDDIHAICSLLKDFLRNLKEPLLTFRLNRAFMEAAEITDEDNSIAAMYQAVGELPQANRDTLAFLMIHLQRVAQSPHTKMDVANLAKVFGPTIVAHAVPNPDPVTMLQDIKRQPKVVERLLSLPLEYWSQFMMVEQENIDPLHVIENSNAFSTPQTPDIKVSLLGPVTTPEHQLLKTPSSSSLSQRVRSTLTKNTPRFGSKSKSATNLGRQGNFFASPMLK

[6] = cytotoxicity toward DRD oncogenic fibroblasts, dose response, cell-based, non-viral oncogenic, luminescence (AID 1934); assay type: functional; conditions: Homo sapiens
BJ [7] = assay: cells; assay type: functional, cell-based; conditions: Homo sapiens
BJ [8] = assay: cytotoxicity toward BJ-TERT fibroblasts, dose response, cell-based, RAS-independent, luminescence (AID 1933); assay type: functional; conditions: Homo sapiens
BJ [9] = assay: cytotoxicity toward BJ-TERT-LT-ST fibroblasts, dose response, cell-based, RAS-independent, luminescence (AID 1935); assay type: functional; conditions: Homo sapiens;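 note: BJ fibroblasts immortalized with TERT plus LT and ST oncogenes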
[10] = target: T3, RNA-binding protein pos-1 (Caenorhabditis elegans, UniProt G5EF15); assay: inhibitors of POS-1/mex-3 RNA binding, dose response, biochemical, fluorescence polarization (AID 1964);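 note: purified POS-1 fused to maltose binding protein made in E. coli; potency of compounds blocking POS-1 binding to fluorescent RNA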
T3 sequence (G5EF15 whole entry): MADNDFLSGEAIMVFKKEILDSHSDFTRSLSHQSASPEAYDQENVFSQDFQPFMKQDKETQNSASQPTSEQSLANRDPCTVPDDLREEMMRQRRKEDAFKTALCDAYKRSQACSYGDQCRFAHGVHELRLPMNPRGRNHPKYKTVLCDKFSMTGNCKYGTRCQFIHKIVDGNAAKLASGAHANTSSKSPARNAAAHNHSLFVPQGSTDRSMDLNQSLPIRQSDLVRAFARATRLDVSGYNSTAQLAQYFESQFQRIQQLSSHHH

[11] = target: T4, Zinc finger protein mex-5 (Caenorhabditis elegans, UniProt Q9XUB2); assay: MEX-5/TCR-2 RNA interaction inhibitors, dose response, biochemical, C. elegans, fluorescence polarization (AID 1960)
T4 sequence (Q9XUB2 whole entry): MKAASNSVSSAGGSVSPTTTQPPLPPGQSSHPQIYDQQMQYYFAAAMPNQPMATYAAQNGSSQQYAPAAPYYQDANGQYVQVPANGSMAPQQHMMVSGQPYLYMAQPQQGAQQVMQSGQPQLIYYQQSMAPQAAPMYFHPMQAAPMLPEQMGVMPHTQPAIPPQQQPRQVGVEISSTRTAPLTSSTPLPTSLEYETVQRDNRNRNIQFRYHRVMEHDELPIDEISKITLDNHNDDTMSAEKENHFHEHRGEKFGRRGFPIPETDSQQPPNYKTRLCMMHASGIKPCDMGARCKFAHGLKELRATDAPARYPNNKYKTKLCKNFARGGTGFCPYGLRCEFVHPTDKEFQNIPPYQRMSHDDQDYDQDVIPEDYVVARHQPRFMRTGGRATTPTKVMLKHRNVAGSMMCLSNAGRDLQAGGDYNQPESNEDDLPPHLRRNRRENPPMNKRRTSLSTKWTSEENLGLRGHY

[12] = target: T5, Heat shock factor protein 1 (Mus musculus, UniProt P38532); assay: inhibition of MG132-induced HSE-luciferase signal, confirmation, cell-based, NIH3T3, luminescence, dose retest (AID 2382); assay type: functional;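 note: NIH3T3 fibroblasts with HSF1-driven luciferase reporter stressed by proteasome inhibitor MG132; luminescence from HSF1-driven luciferase expression after 8 hours of MG132 stress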
T5 sequence (P38532 whole entry): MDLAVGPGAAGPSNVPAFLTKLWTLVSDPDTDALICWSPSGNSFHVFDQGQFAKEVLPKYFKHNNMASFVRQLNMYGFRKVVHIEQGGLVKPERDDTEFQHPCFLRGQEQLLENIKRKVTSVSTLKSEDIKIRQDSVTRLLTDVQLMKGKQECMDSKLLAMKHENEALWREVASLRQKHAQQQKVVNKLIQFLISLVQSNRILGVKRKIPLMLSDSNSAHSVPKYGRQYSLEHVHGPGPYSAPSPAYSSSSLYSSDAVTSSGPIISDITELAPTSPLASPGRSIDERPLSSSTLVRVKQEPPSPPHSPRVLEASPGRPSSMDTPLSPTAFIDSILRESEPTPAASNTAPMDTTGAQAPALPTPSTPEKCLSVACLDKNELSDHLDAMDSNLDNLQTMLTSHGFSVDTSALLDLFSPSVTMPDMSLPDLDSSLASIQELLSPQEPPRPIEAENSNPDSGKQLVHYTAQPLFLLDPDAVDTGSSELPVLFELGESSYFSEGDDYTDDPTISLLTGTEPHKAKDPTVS

[13] = target: T6, Calpain-2 catalytic subunit (Sus scrofa, UniProt P43367); assay: pig calpain II inhibitor potency, dose response, biochemical, fluorogenic peptide substrate (AID 1420); assay type: functional
T6 sequence (P43367 whole entry): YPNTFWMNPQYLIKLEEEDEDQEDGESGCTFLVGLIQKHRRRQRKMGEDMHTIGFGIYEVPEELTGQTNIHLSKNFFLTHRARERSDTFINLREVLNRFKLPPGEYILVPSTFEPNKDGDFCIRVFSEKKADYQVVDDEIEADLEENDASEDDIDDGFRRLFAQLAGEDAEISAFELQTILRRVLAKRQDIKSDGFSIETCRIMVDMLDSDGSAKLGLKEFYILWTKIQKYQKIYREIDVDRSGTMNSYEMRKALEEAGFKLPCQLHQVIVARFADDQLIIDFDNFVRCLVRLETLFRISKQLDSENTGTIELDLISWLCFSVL

[14] = target: T5, Heat shock factor protein 1; assay: HSF1 potentiators in luciferase reporter cells, confirmation, cell-based, NIH3T3, luminescence, dose retest (AID 435004); assay type: functional;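 note: stress induced by proteasome inhibitor MG132 added 30 min after compound; luciferase reporter driven by HSF1 response element in NIH3T3 cells; actives raise luminescence as potentiators of the MG132 stress response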
[15] = Luminescence Cell-Based Dose Confirmation HTS to Identify Inhibitors of Platelet Dense Granule Release. [Related pubchem assays: 1663 (Primary HTS), 1678 (Summary of Project)]; assay type: functional
INS1 = assay: beta cell apoptosis inhibitors, cytokine rescue, dose response, luminescence, retest (AID 449756); assay type: functional, cell-based; conditions: Rattus norvegicus;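 note: cell death triggered by IL-1 beta plus TNF-alpha plus IFN-gamma mixture; protective hits raise ATP signal compared with cytokine alone wells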
[16] = target: Luciferin 4-monooxygenase (Photinus pyralis, UniProt P08659); assay: firefly luciferase enzyme inhibitors, dose response, biochemical, luminescence (AID 1891)
[17] = target: Heat shock protein HSP 90-alpha (Homo sapiens, UniProt P07900); assay type: functional, organism-based
[18] = target: FAD-linked sulfhydryl oxidase ALR (Homo sapiens, UniProt P55789); assay: inhibitors of human ALR sulfhydryl oxidase, dose response, biochemical, H2O2 detection, luminescence, cherry-pick (AID 493248)
FAD-linked sulfhydryl oxidase ALR, sequence (P55789 whole entry): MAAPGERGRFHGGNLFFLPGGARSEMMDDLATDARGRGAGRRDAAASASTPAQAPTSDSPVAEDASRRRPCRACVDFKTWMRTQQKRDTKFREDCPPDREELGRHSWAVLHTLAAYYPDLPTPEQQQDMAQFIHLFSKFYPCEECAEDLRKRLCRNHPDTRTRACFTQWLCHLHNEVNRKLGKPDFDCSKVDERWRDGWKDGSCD

T1 sequence (P49327 whole entry, the tested form may be a part): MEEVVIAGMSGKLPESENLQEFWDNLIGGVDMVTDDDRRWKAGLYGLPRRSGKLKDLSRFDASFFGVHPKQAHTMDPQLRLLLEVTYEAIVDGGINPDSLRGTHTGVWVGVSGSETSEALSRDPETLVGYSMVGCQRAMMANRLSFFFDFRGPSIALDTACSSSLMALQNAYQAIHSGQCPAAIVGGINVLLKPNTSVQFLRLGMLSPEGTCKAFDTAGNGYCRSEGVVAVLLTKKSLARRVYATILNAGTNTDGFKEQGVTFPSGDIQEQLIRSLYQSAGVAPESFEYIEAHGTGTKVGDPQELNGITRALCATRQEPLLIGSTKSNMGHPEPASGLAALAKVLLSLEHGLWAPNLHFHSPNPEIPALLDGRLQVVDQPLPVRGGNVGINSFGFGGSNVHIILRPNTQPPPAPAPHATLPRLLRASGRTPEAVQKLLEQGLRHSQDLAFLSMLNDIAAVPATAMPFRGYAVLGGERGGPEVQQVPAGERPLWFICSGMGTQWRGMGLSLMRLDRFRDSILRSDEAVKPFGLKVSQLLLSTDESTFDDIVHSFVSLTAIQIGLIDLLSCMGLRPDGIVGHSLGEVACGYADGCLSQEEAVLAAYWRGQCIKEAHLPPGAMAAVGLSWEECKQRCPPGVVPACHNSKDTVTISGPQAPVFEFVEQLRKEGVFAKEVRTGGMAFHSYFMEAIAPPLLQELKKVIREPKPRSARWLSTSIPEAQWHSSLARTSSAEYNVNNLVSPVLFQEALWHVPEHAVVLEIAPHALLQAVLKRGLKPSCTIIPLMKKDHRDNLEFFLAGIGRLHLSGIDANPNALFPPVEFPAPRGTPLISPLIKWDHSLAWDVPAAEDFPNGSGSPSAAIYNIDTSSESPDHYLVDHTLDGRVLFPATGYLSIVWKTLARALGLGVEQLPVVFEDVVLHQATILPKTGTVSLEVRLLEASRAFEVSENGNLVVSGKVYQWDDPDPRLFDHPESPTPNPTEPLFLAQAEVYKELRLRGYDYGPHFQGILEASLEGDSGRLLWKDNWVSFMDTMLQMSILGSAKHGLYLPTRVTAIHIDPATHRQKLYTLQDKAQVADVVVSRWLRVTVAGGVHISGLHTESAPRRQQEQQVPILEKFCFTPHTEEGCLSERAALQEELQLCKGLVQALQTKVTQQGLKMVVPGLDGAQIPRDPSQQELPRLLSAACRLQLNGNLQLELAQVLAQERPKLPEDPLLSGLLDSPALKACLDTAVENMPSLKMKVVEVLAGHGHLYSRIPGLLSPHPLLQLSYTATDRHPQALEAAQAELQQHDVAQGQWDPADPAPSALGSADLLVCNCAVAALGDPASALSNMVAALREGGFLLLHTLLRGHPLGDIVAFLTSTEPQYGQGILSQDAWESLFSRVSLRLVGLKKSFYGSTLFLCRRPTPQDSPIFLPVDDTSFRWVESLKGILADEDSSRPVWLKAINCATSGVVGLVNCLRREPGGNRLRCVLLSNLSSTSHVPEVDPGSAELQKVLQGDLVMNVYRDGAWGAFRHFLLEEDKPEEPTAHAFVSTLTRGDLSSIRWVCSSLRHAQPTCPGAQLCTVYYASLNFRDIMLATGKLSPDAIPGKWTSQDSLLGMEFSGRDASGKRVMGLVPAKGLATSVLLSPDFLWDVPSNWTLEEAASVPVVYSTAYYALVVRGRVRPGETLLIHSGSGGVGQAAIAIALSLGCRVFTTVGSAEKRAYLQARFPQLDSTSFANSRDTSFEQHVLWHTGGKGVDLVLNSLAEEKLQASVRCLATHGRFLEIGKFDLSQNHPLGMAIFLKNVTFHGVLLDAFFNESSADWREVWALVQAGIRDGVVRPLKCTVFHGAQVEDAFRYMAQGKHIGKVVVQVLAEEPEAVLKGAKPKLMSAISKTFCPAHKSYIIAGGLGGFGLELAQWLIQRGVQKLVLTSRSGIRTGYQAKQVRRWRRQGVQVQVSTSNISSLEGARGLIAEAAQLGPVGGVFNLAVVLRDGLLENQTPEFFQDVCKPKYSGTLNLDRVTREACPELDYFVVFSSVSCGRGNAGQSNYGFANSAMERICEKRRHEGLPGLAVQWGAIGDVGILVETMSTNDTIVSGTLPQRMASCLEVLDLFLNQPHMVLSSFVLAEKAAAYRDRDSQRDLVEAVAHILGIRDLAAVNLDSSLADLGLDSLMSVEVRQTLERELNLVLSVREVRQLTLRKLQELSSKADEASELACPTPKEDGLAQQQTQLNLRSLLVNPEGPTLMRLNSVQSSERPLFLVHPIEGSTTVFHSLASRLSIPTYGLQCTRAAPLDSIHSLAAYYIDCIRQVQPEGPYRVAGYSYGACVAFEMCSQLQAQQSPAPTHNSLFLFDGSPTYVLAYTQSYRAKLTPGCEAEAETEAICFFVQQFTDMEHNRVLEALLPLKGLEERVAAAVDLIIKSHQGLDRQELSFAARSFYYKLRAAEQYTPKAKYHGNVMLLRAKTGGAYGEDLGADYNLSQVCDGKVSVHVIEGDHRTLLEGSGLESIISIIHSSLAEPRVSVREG
Luciferin 4-monooxygenase, sequence (P08659 whole entry): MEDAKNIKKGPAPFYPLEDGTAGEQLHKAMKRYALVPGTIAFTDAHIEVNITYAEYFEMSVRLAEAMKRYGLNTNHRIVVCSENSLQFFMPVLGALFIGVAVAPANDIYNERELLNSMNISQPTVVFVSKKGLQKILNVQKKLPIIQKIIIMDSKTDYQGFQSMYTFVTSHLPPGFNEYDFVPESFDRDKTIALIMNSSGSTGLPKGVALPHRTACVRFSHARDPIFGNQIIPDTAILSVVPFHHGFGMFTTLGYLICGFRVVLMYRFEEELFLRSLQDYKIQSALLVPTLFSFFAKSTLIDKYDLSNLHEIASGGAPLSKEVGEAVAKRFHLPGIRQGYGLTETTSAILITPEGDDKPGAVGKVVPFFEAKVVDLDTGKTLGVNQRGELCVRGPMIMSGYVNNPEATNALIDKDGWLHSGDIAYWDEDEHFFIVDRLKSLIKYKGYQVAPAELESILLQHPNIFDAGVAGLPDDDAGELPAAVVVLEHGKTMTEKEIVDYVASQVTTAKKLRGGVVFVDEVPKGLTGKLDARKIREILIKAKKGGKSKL

Structure (SMILES): O=C(NCCOc1ccccc1)c1cc(C(=O)NCCOc2ccccc2)cc([N+](=O)[O-])c1
- EC50 [1]: > 60 µM (not active)
- IC50 (Fatty acid synthase [2]): 2.75 µM (active)
- EC50 [3]: 1.28 µM (active)
- IC50 (Fatty acid synthase [4]): 5.6 µM (active)

Structure (SMILES): C[C@@](O)(/C=C/[C@H]1CC=CC(=O)O1)[C@@H](C[C@@H](O)\C=C/C=C\C=C\CO)OP(=O)(O)O [FOSTRIECIN SODIUM]
- GI50 (SN12K1): 3.72 µM (inactive)

Structure (SMILES): CCC1=Nc2cc(C(=O)NCCN3CCOCC3)ccc2Sc2ccccc21
- EC50 [6]: > 150 µM (not active)
- EC50 (BJ [7]): > 150 µM (not active)
- EC50 (BJ [8]): > 150 µM (not active)
- EC50 (BJ [9]): > 150 µM (not active)

Structure (SMILES): O=C(CCC1CCCC1)N1CCN(C2CCCC2)CC1
- IC50 [5]: 209 µM (active)

Structure (SMILES): C/C(=N\NC(=O)CC1N=C(Cc2ccccc2)NNC1=O)c1ccc(C)cc1 (centres undefined)
- EC50 [6]: 44.3 µM (active)
- EC50 (BJ [7]): > 150 µM (not active)
- EC50 (BJ [8]): > 150 µM (not active)
- EC50 [14]: > 260 µM (inactive)
- EC50 (BJ [9]): > 150 µM (inconclusive)

Structure (SMILES): CC1CCc2nn(CC(=O)NCCN3CCCCC3C)cc2C1 (centres undefined)
- EC50 [10]: > 300 µM (not active)
- EC50 [11]: > 300 µM (not active)

Structure (SMILES): C[C@@]12C(=O)Nc3ccccc3C(=O)N1[C@H]1c3cc(Br)ccc3OC[C@@H]1[C@@H]2c1ccccc1
- IC50 (Fatty acid synthase [2]): 11.8 µM (active)
- IC50 (Fatty acid synthase [4]): 16.2 µM (active)

Structure (SMILES): CC/N=C1\S/C(=C\c2ccc(O)c(OCC)c2)C(=O)N1CC
- IC50 [5]: 37.9 µM (active)

Structure (SMILES): O=[N+]([O-])c1ccc(N=Nc2c(Cl)cc(O)cc2Cl)cc1
- EC50 [15]: 1.98 µM (active)
- EC50 [6]: 4.74 µM (active)
- EC50 (BJ [7]): 4.44 µM (active)
- EC50 (BJ [8]): 5.98 µM (active)
- AC50 (INS1): 1.73 µM (active)
- EC50 (BJ [9]): 5.78 µM (active)
- EC50 [16]: 0.137 µM (active)
- AC50 [17]: 0.574 µM (active)

Structure (SMILES): O=C1Nc2ccccc2/C1=C1\SC(=S)N(Cc2ccccc2Cl)C1=O
- EC50 [6]: 23 µM (active)
- EC50 (BJ [7]): > 150 µM (not active)
- EC50 (BJ [8]): 10.8 µM (inconclusive)
- EC50 (BJ [9]): > 75 µM (inconclusive)

Second part, the compound after the results:

- IC50 [5]: 149 µM (active)
Structure (SMILES): COc1ccc(CNCc2cccc(OC)c2OC)cc1Br

- IC50 (Fatty acid synthase [2]): 4.94 µM (active)
- IC50 (Fatty acid synthase [4]): 5.88 µM (active)
Structure (SMILES): CCN(C(=O)CSc1ncnc2c1cnn2-c1ccccc1)C1CCS(=O)(=O)C1 (centres undefined)

- IC50 [5]: 12.5 µM (active)
Structure (SMILES): Cc1cnc(C(=O)Oc2ccc(-c3ccccc3)cc2)cn1

- EC50 [10]: > 300 µM (not active)
- EC50 [11]: > 300 µM (inconclusive)
Structure (SMILES): COc1ccccc1C(=O)Nc1ccnn1C1CCN(C(C)CSC)CC1 (centres undefined)

- IC50 [5]: 57.7 µM (active)
- EC50 [12]: > 195 µM (not active)
Structure (SMILES): CN(C)c1ccc(NS(=O)(=O)c2cc(Cl)ccc2Cl)cc1

- IC50 [13]: 12.6 µM (not active)
- IC50 (Fatty acid synthase [2]): 6.81 µM (active)
- IC50 (Fatty acid synthase [4]): 5.49 µM (active)
Structure (SMILES): O=C(O)c1cc(NN=Nc2ccc(Br)cc2)cc([N+](=O)[O-])c1

- IC50 [5]: 113 µM (active)
Structure (SMILES): CN1CCCCC/C1=N\c1ccccc1C#N

- IC50 (Fatty acid synthase [2]): 7.54 µM (active)
- IC50 (Fatty acid synthase [4]): 7.65 µM (active)
Structure (SMILES): Cc1cccc(COC[C@H](CC(C)C)N2CCN(C(=O)c3ccc(C(C)(C)C)cc3)CCC2=O)c1

- IC50 (Fatty acid synthase [2]): 6.81 µM (active)
- IC50 (Fatty acid synthase [4]): 8.65 µM (active)
Structure (SMILES): Cc1csc(NC(=O)C2CCN(S(=O)(=O)c3ccc4c(c3)oc(=O)n4C)CC2)n1

- IC50 (Fatty acid synthase [2]): 3.44 µM (active)
- IC50 (Fatty acid synthase [4]): 5.24 µM (active)
Structure (SMILES): COc1ccc(-n2c(SCc3ccc([N+](=O)[O-])cc3)nnc2-c2ccccc2)cc1

- EC50 [10]: > 300 µM (not active)
- EC50 [11]: > 300 µM (not active)
Structure (SMILES): Cc1ccc(NC(=O)Cn2c(=O)c(C)nc3ccccc32)cc1

- IC50 (Fatty acid synthase [2]): 1.57 µM (active)
- IC50 (Fatty acid synthase [4]): 2.25 µM (active)
Structure (SMILES): O=C(COC(=O)c1cc([N+](=O)[O-])ccc1N1CCOCC1)Nc1cc(F)ccc1F

- EC50 [10]: > 300 µM (not active)
- EC50 [11]: 55.8 µM (active)
Structure (SMILES): Cc1ccc(-n2c(=O)c(C#N)cc3c(=O)n4ccccc4nc32)cc1C

- IC50 [5]: 75.4 µM (active)
Structure (SMILES): O=C(c1ccccc1)c1coc2ccc(O)c(Cl)c12

- IC50 [5]: 108 µM (active)
- AC50 [18]: 2.19 µM (active)
Structure (SMILES): COc1ccc(NC2CCCN(C(=O)CCc3cn[nH]c3)C2)cc1 (centres undefined)
